Reference: patent US20100196475A1, “CONTROLLED RELEASE TABLET FORMULATION CONTAINING MAGNESIUM ALUMINOMETASILICATE” (priority 2007, published 2010)
Converted amounts (≈) assume the structure as drawn. Structures can show the parent of a compound that is named as a salt.

Assay: physchem
Format: physicochemical
Settings: for solubility: water
Method: Four different active agents with different solubilities were selected for the preparation of multi-layer tablets, as follows:
9410 (Prednisone)—solubility of 0.1 mg/ml in water.

Row | solubility described in words | solubility [mg/mL] | Compound
1 | freely soluble | 257 (≈ 707 mM) | CC(C)(Cc1c[nH]c2ccccc12)NCC(O)COc1ccccc1C#N (stereo not drawn) [compound 8110, Bucindolol]
2 | Very soluble | 1200 | COc1ccc([C@@H]2Sc3ccccc3N(CCN(C)C)C(=O)[C@@H]2OC(C)=O)cc1 [compound 8403, Diltiazem HCl]
3 | soluble | 0.1 (≈ 0.279 mM) | C[C@]12C=CC(=O)C=C1CC[C@@H]1[C@@H]2C(=O)C[C@@]2(C)[C@H]1CC[C@]2(O)C(=O)CO [compound 9410, Prednisone]
